Measured values published in patent US20150272955A1, “Triazolo[4,5-D]Pyrimidine Compounds For Treatment Of Abdominal Aortic Aneurysms” (AstraZeneca AB, priority 2007, published 2015).
Entries after “also recorded” stand apart in the source; their conditions may differ.

What was measured:
[1] = system: experimental aortic aneurysms (mural thrombus and aneurysmal wall); experiment: AAA model: histological and immunohistochemical analysis of aneurysm; assay type: in vivo, rat
Description: (§1) Experimental aortic aneurysms were induced by implanting a segment of sodium dodecyl sulfate-decellularized guinea-pig aorta (xenogenic matrix) in rat aortas (Allaire E. et al. (1994), J Vasc Surg 19:446-456). This AAA model is characterized by immuno-inflammatory injury of the xenogeneic extracellular matrix (Allaire E et al. (1997), Surgery 122:73-81; Allaire E et al. (1996), Transplantation 62:794-803). Briefly, 46 male Lewis rats (250 g) and 46 guinea-pigs (280 g) (Iffa Credo, Lyon, France) were housed according to the principles of Laboratory Animal Care formulated by the European Union. Animals were anaesthetized by intraperitoneal injection of pentobarbital (5 mg/100 g body weight). Guinea-pig infrarenal aortas (1.5 cm) were sampled and decellularized by sodium dodecyl sulfate treatment to obtain tubes of intact extracellular matrix, which were orthotopically transplanted into the aorta of Lewis rats with 10/0 nylon interrupted sutures (xenograft) (Allaire et al., 1997; Allaire et al., 1996). The initial diameter of the graft was measured in situ, immediately after unclamping, under a binocular microscope. After 24 h, rats were randomly assigned to two equal groups, treated with Compound (A) (10 mg/kg body weight twice daily by oral administration) or with the diluent of Compound (A) (1% carboxymethylcellulose/0.1% Tween-80 in water) for 10 days (D10, n=9 for each group) or 6 weeks (D42, n=14 for each group). At sacrifice, rats were deeply anesthetized, the graft diameter was measured again, and the aorta was dissected out and fixed in 4% paraformaldehyde. Aortic samples were embedded in paraffin and cut at 5 μm.
Sections were stained with picro Sirius red to visualize collagen and fibrin and with orcein to visualize elastin. Immunohistochemistry was performed using anti-human α-actin (dilution 1:500, Dako, Trappes, France), anti-CD68 (macrophages, dilution 1:1000, Serotec, Cergy Saint-Christophe, France), anti-rat polymorphonuclear leukocytes (dilution 1:3000, Cedarlane, Ontario, Canada), anti-CD41 (integrin αIIb, platelets, dilution 1:50, Santa Cruz Biotechnologies) and anti-MMP-9 (dilution 1:50, Calbiochem, Darmstadt, Germany) as primary antibodies and a peroxidase Vector ABC kit for detection (Vector Labs, Burlingame, Calif., USA). Cells were counted with a grid in the microscope eyepiece and averaged in 4 symmetrical fields on the same slide. The size of the areas represented by thrombus, elastic fiber, AAA wall, and MMP-9- and CD41-positive staining were measured by morphometric analysis using Histolab software (Microvision Instruments, Evly, France). Thrombus areas were determined on Sirius red slides. The area occupied by positive staining was quantified by the color detecting mode of the computer program in the inner thrombus and outer wall.
(§2) Results are expressed as means±S.D. The percentage of diameter increase was calculated as follows: (diameter at harvest−diameter at grafting)×100/diameter at grafting. Comparisons between the two groups were made using the nonparametric Mann-Whitney U test (Statview, version 4.5). The frequency of aneurysms of large diameter in the different groups was analyzed by X^2 test. Simple regression analysis was used to test for correlations between various parameters. P<0.05 was considered significant.

[2] = system: experimental aortic aneurysms (decellularized guinea-pig aorta xenograft in rat aorta); experiment: AAA model: external aneurysmal diameter after xenograft implantation; assay type: in vivo
Description: as §1, §2

[3] = Day 42, 10 mg/kg twice daily oral

With `CCCSc1nc(N[C@@H]2C[C@H]2c2ccc(F)c(F)c2)c2nnn([C@@H]3C[C@H](OCCO)[C@@H](O)[C@H]3O)c2n1` (relative stereo) [Compound (A), {1S-[1α,2α,3β(1S*,2R*),5β]}-3-(7-{[2-(3,4-difluorophenyl)cyclopropyl]amino}-5-(propylthio)-3H-1,2,3-triazolo[4,5-d]pyrimidin-3-yl)-5-(2-hydroxyethoxyl)cyclopentane-1,2-diol] the thrombus area/wall area ([1]; Day 10, 10 mg/kg twice daily oral) was 0.07±0.05, the thrombus area/wall area [1, 3] was 0.35±0.44 and the “CD41-positive area (platelet marker) within the thrombus” value ([1]; Day 42, P=0.005 vs control) was 0.13±0.16. For the same compound, the “MMP-9-positive area in the thrombus and the wall” value ([1]; Day 42, immunostaining) was “markedly reduced”, the “slope (s) of correlation between thrombus area and aneurysm diameter” value ([1]; Day 42, intragroup analysis) was 0.17 and the “infiltration of PMNs into the mural thrombus” value ([1]; Days 10 and 42) was “significantly inhibited”. The “infiltration of macrophages into the mural thrombus” value ([1]; Days 10 and 42) was “significantly inhibited”, the “macrophage infiltration into the aneurysmal wall” value ([1]; Days 10 and 42) was “did not reach statistical significance; also recorded: no change” and the “elastic fibers of the media (elastic lamellae area)” value ([1]; Days 10 and 42, orcein staining) was “significant preservation”. For the same compound, the “SMC colonization of the wall” value ([1]; after 10 or 42 days) was “did not affect”, the “density of SMCs within the thrombus” value ([1]; treatment for 10 days, α-actin staining) was “did not modify” and the “SMC colonization of the thrombus” value ([1]; treatment for 42 days, α-actin staining) was “significantly improved”. The “increase in aneurysmal diameter between Days 10 and 42” value ([2]; 10 mg/kg twice daily oral) was “no increase in aneurysmal diameter was observed”, the “percent increase in external diameter vs control” value [2, 3] was “significantly reduced” and the “incidence of larger aneurysms (diameter >4 mm)” value ([2]; Day 42, X^2=11.6, P<0.001) was “predominated in the control group”. The “increase in external aneurysmal diameter” value ([2]; male Lewis rats, 10 mg/kg twice daily oral, 10 days, n=9) was 197.3±52.8%, the “mean external aneurysmal diameter” value ([2]; male Lewis rats, 10 mg/kg twice daily oral, Day 10) was 2.22±0.56 mm and the “mean external aneurysmal diameter” value ([2]; male Lewis rats, 10 mg/kg twice daily oral, Day 42, n=14) was 3.61±1.46 mm.
